Experimental data from ChEMBL document CHEMBL6121006, “Marine natural product-inspired discovery of novel BRD4 inhibitors with anti-inflammatory activity” (Eur J Med Chem, 2025).
Active and inactive are the calls of the source. The rule behind the calls is not given here.

Experiments:
[1] = molecular target: T1, Bromodomain-containing protein 4 (Homo sapiens, UniProt O60885); assay: Inhibition of human recombinant BRD4 BD2 (349 to 460 residues) extracted from Escherichia coli BL21 (DE3) at 10 uM incubated for 2 hrs by TR-FRET assay relative to control
[2] = molecular target: T1, Bromodomain-containing protein 4; assay: Inhibition of human recombinant BRD4 BD1 (42 to 167 residues) extracted from Escherichia coli BL21 (DE3) incubated for 2 hrs by TR-FRET assay
[3] = molecular target: T1, Bromodomain-containing protein 4; assay: Inhibition of human recombinant BRD4 BD1 (42 to 167 residues) extracted from Escherichia coli BL21 (DE3) at 10 uM incubated for 2 hrs by TR-FRET assay relative to control
RAW264.7 [4] = assay: Anti-inflammatory activity in mouse RAW264.7 cells assessed as inhibition of LPS-induced NO production at 10 uM preincubated with compound for 24 hrs followed by LPS stimulation by Griess reagent based analysis relative to control; assay type: functional; set-up: scale not given: the % may be the effect or the level left
[5] = molecular target: T1, Bromodomain-containing protein 4; assay: Inhibition of human recombinant BRD4 BD2 (349 to 460 residues) extracted from Escherichia coli BL21 (DE3) incubated for 2 hrs by TR-FRET assay
RAW264.7 [6] = assay: Anti-inflammatory activity in mouse RAW264.7 cells assessed as inhibition of LPS-induced NO production preincubated with compound for 24 hrs followed by LPS stimulation by Griess reagent based analysis; assay type: functional, cell-based
[7] = molecular target: T1, Bromodomain-containing protein 4; assay: Selectivity index, ratio of IC50 for human recombinant BRD4 BD1 (42 to 167 residues) extracted from Escherichia coli BL21 (DE3) to IC50 for human recombinant BRD4 BD2 (349 to 460 residues) extracted from Escherichia coli BL21 (DE3)
[8] = molecular target: T1, Bromodomain-containing protein 4; assay: Inhibition of BRD4 (unknown origin)
RAW264.7 [9] = assay: Anti-inflammatory activity in mouse RAW264.7 cells assessed as inhibition of LPS-induced IL-6 expression preincubated with compound for 2 hrs followed by LPS stimulation and measured after 6 hrs by RT-qPCR analysis; assay type: functional, cell-based; details: dose 2.5-20 µM, time 8.0 hrs
RAW264.7 [10] = assay: Anti-inflammatory activity in mouse RAW264.7 cells assessed as inhibition of LPS-induced TNF-alpha expression preincubated with compound for 2 hrs followed by LPS stimulation and measured after 6 hrs by RT-qPCR analysis; assay type: functional, cell-based; details: dose 2.5-20 µM, time 8.0 hrs
THP-1 [11] = assay: Anti-inflammatory activity in human THP-1 cells assessed as inhibition of LPS-induced TNF-alpha expression preincubated with compound for 2 hrs followed by LPS stimulation and measured after 6 hrs by RT-qPCR analysis; assay type: functional, cell-based; details: dose 2.5-20 µM, time 8.0 hrs
THP-1 [12] = assay: Anti-inflammatory activity in human THP-1 cells assessed as inhibition of LPS-induced IL-6 expression preincubated with compound for 2 hrs followed by LPS stimulation and measured after 6 hrs by RT-qPCR analysis; assay type: functional, cell-based; details: dose 2.5-20 µM, time 8.0 hrs

Structure (SMILES)	inhibition [1]	IC50 [2]	inhibition [3]	IC50 [5]	Ratio IC50 [7]	Activity (RAW264.7 [4])	also measured
COc1cc(OC)c2c(=O)[nH]c(C(=O)c3cccc(C(F)(F)F)c3)nc2c1	53%	> 10 µM	13%	> 10 µM		12%	
COc1cc(OC)c2c(=O)[nH]c(C3CCN(Cc4ccccc4)CC3)nc2c1	46%	7.87 µM	51%	> 10 µM		89%	IC50 (RAW264.7 [6]): 6.78 µM
COc1cc(OC)c2c(=O)[nH]c(/C=C/c3ccc(N(C)C)cc3)nc2c1	74%	> 10 µM	24%	0.47 µM	> 21	24%	
O=C(c1ccc2ccccc2c1)c1nc2ccccc2c(=O)[nH]1	17%		16%				
COc1ccc(CCc2nc3cc(OC)cc(OC)c3c(=O)[nH]2)cc1	86%	> 10 µM	12%	0.74 µM	> 13	17%	
COc1ccc(C(=O)c2nc3cc(OC)cc(OC)c3c(=O)[nH]2)cc1	51%		inactive	3.93 µM	> 10	6.4%	inhibition [2]: inactive
COc1cc(OC)c2c(=O)[nH]c(C(=O)c3ccc(F)cc3)nc2c1	52%		inactive	1.84 µM	> 10	18%	inhibition [2]: inactive
C[C@@H]1C[C@H]2[C@@H]3CCC4=CC(=O)C=C[C@]4(C)[C@@]3(F)[C@@H](O)C[C@]2(C)[C@@]1(O)C(=O)CO [DEXAMETHASONE]						29%	
COc1cc(OC)c2c(=O)[nH]c(C(=O)c3cc(F)ccc3F)nc2c1	46%		10%				
COc1ccc(C(=O)c2nc3cc(OC)c(I)c(OC)c3c(=O)[nH]2)cc1	53%	> 10 µM	10%	> 10 µM		14%	
COc1cccc(/C=C/c2nc3cc(OC)cc(OC)c3c(=O)[nH]2)c1	67%		inactive	> 10 µM		78%	inhibition [2]: inactive; IC50 (RAW264.7 [6]): 5.22 µM
Cc1nnn(C)c1-c1cnc2c3cc4cnn(C)c4cc3n([C@H](c3ccccc3)C3CCOCC3)c2c1							IC50 [8]: 0.00245 µM
COc1cc(OC)c2c(=O)[nH]c(-c3cc(C)c(OCCO)c(C)c3)nc2c1 [APABETALONE]	99%					74%	Activity (RAW264.7 [9]): Dose-dependent-effect; Activity (RAW264.7 [10]): Dose-dependent-effect; Activity (THP-1 [11]): Dose-dependent-effect; Activity (THP-1 [12]): Dose-dependent-effect; IC50 (RAW264.7 [6]): 8.76 µM

Continued, in another order:

inhibition [1]	IC50 [2]	inhibition [3]	IC50 [5]	Ratio IC50 [7]	Structure (SMILES)	Activity (RAW264.7 [4])	also measured
15%		22%			COc1cc(C(=O)c2nc3ccccc3c(=O)[nH]2)cc(OC)c1OC		
42%	2.16 µM	54%			COc1ccc(C(=O)c2nc3ccccc3c(=O)[nH]2)cc1	5.4%	
48%		1.3%			COc1cc(OC)c2c(=O)[nH]c(C(=O)c3ccc(OCCO)cc3)nc2c1		
66%	> 10 µM	3.1%	7.06 µM	> 1	COc1cc(OC)c2c(=O)[nH]c(C=C(c3ccccc3)c3ccccc3)nc2c1	21%	
48%		12%			COc1cc(OC)c2c(=O)[nH]c(C(=O)c3cccc(C#N)c3)nc2c1		
47%		13%			COc1cc(OC)c2c(=O)[nH]c(C(=O)c3ccc(OC)c(OC)c3)nc2c1		
54%	> 10 µM	23%	> 10 µM		COc1cc(OC)c2c(=O)[nH]c(/C=C/c3ccc(Cl)cc3)nc2c1	11%	
59%	> 10 µM	20%	1.33 µM	> 7	COc1cc(OC)c2c(=O)[nH]c(/C(C)=C/c3ccccc3)nc2c1	6.8%	
11%		17%			O=C(c1ccc(O)cc1)c1nc2ccccc2c(=O)[nH]1		
97%	> 10 µM	54%	0.74 µM	> 13	COc1cc(OC)c2c(=O)[nH]c(CC(C)c3ccc(C(C)(C)C)cc3)nc2c1 (stereo not given)	3.4%	
75%	4.59 µM	56%	1.52 µM	3	COc1ccc(Cc2nc3cc(OC)cc(OC)c3c(=O)[nH]2)cc1	15%	
98%	> 10 µM	13%	0.39 µM	> 26	COc1cc(OC)c2c(=O)[nH]c(/C=C/c3cc(OC)c(O)c(OC)c3)nc2c1	18%	
17%		11%			COc1cc(OC)c2c(=O)[nH]c(C(=O)c3cc(OC)c(OC)c(OC)c3)nc2c1		
